From patent US20240132461A1, “FLAVONE DEAZA SPERMIDINE ANALOGUES AND THEIR USE TREATING CANCER” (FLORATEK PHARMA S.A., priority 2021, published 2024)
Where a name gives a salt, the structure may show the parent alone.

Legend:
Type in all cases: cell-based
HCT-116 = assay: Cell viability assay, colon cancer cell line HCT-116
Description: (§1) Antitumor activity of the compounds and doxorubicin as a positive control was assessed by using the CellTiter-Blue Cell Viability Assay (Promega, #G8082) or CellTiter-Glow® Luminescent Cell Viability assay (Promega # G7572) according to the manufacturer's instructions. The compounds were tested at 5 or 6 concentrations in half-log increments (highest concentration 30 μM-100 μM) in duplicate or triplicate well conditions.
Tumor cells were grown at 37° C. in a humidified atmosphere with 5% CO2 in RPMI 1640 or DMEM medium, supplemented with 10% (v/v) fetal calf serum and 50 μg/ml gentamicin for up to 20 passages, and were passaged once or twice weekly. Cells were harvested using TrypLE or PBS buffer containing 1 mM EDTA, and the percentage of viable cells is determined using a CASY Model TT cell counter (OMNI Life Science). Cells were harvested from exponential phase cultures, counted and plated in 96 well flat-bottom microtiter plates at a cell density depending on the cell line's growth rate (4,000-20,000 cells/well depending on the cell line's growth rate, up to 60,000 for hematological cancer cell lines) in RPMI 1640 or DMEM medium supplemented with 10% (v/v) fetal calf serum and 50 μg/ml gentamicin (140 μl/well). […] Viability of cells was quantified by the CellTiter-Blue® cell viability assay (Promega G8081) or CellTiter-Glow® Luminescent Cell Viability assay (Promega # G7572). […]

melanoma cell lines = assay: Cell viability assay, melanoma cell lines (summary); conditions: summary of Tables 14A and 14B; read-out: IC50s, melanoma cell lines growth
Description: as §1
(§2) Tumor cells were grown at 37° C. in a humidified atmosphere with 5% CO2 in RPMI 1640 or DMEM medium, supplemented with 10% (v/v) fetal calf serum and 50 μg/ml gentamicin for up to 20 passages, and were passaged once or twice weekly. Cells were harvested using TrypLE or PBS buffer containing 1 mM EDTA, and the percentage of viable cells is determined using a CASY Model TT cell counter (OMNI Life Science). Cells were harvested from exponential phase cultures, counted and plated in 96 well flat-bottom microtiter plates at a cell density depending on the cell line's growth rate (4,000-20,000 cells/well depending on the cell line's growth rate, up to 60,000 for hematological cancer cell lines) in RPMI 1640 or DMEM medium supplemented with 10% (v/v) fetal calf serum and 50 μg/ml gentamicin (140 μl/well). Cultures were incubated at 37° C. and 5% CO2 in a humidified atmosphere. After 24 h, 10 μl of test compounds or control medium are added, and left on the cells for another 72 h. Compounds were serially diluted in DMSO, transferred in cell culture medium, and added to the assay plates. The DMSO concentration was kept constant at <0.3% v/v across the assay plate. Viability of cells was quantified by the CellTiter-Blue® cell viability assay (Promega G8081) or CellTiter-Glow® Luminescent Cell Viability assay (Promega # G7572). Fluorescence (FU) was measured by using the EnSpire® multimode plate reader (Perkin Elmer) (excitation λ=570 nm, emission λ=600 nm) or luminescent detection of ATP in viable cells was used as parameter for proliferation. Luminescence was measured with the microplate luminometer (Promega or Perkin Elmer).
(§3) Sigmoidal concentration-response curves were fitted to the data points (test-versus-control, T/C values) obtained for each tumor model using 4 parameter non-linear curve fit (Charles River DRS Datawarehouse Software) or with GraphPad prism 5.02 software. IC50 values are reported as absolute IC50 values, being the concentration of test compound at the intersection of the concentration-response curves with T/C=50%

A375 = assay: Cell viability assay, melanoma cell line A375; conditions: Homo sapiens, A-375
Description: as §1, §2, §3

LN-229 = assay: Cell viability assay, brain carcinoma cell line LN-229; conditions: Homo sapiens; LN-229 brain carcinoma cell line, 72 h, absolute IC50
Description: as §1, §2, §3

NCI-H1437 = assay: Cell viability assay, non-small lung carcinoma cell line NCI-H1437; conditions: Homo sapiens
Description: as §1, §2, §3

brain cancer cell = assay: Cell viability assay, brain cancer cell lines (summary); conditions: summary of Tables 3A-D; read-out: IC50s, brain cancer cell growth
Description: as §1, §2, §3

DMS114 = assay: Cell viability assay, small cell lung carcinoma cell line DMS114; conditions: Homo sapiens, DMS-114
Description: as §1
as §2, with “Elmer). […]” for “Elmer).”

NCI-H292 = assay: Cell viability assay, mucoepidermoid pulmonary and adenocarcinoma, NCI-H292; conditions: Homo sapiens
Description: as §1
as §2, with “Elmer). […]” for “Elmer).”

SH-SY-5Y = assay: Cell viability assay, brain carcinoma cell line SH-SY-5Y; conditions: Homo sapiens, SH-SY5Y; SH-SY-5Y brain carcinoma cell line, 72 h, absolute IC50
Description: as §1
as §2, with “Elmer). […]” for “Elmer).”

U-87MG = assay: Cell viability assay, brain carcinoma cell line U-87MG; conditions: Homo sapiens; U-87MG brain carcinoma cell line, 72 h, absolute IC50
Description: as §1, §2, §3

breast cancer cell = assay: Cell viability assay, breast cancer cell lines (summary); conditions: summary of Tables 4A and 4B; read-out: IC50s, breast cancer cell growth
Description: as §1, §2, §3

HL-60 = assay: Cell viability assay, acute promyelocytic leukemia cell line HL-60; conditions: Homo sapiens; HL-60 acute promyelocytic leukemia cell line
Description: as §1, §2, §3

MDA-MB-468 = assay: Cell viability assay, breast carcinoma cell line MDA-MB-468; conditions: Homo sapiens; MDA-MB-468 breast carcinoma cell line
Description: as §1
as §2, with “Elmer). […]” for “Elmer).”

MeWo = assay: Cell viability assay, melanoma cell line MeWo; conditions: Homo sapiens
Description: as §1
as §2, with “Elmer). […]” for “Elmer).”

CALU-6 = assay: Cell viability assay, non-small cell lung carcinoma cell line CALU-6; conditions: Homo sapiens; CALU-6 non-small cell lung carcinoma cell line
Description: as §1, §2, §3

U-251 = assay: Cell viability assay, brain carcinoma cell line U-251; conditions: Homo sapiens; U-251 brain carcinoma cell line, 72 h, absolute IC50
Description: as §1, §2, §3

lung carcinoma cell = assay: Cell viability assay, lung carcinoma cell lines (summary); conditions: summary of Tables 7A-E; read-out: IC50s, lung carcinoma cell growth
Description: as §1, §2, §3

NCI-H441 = assay: Cell viability assay, mucoepidermoid pulmonary and adenocarcinoma, NCI-H441; conditions: Homo sapiens
Description: as §1
as §2, with “Elmer). […]” for “Elmer).”

Row | IC50 (HCT-116; HCT-116 colon cancer cell line) | IC50 (HCT-116; Homo sapiens, HCT-116, HCT-116 colon cancer cell line) | IC50 (melanoma cell lines) | IC50 (A375) | IC50 (LN-229) | IC50 (NCI-H1437) | IC50 (brain cancer cell) | IC50 (DMS114) | IC50 (NCI-H292) | IC50 (SH-SY-5Y) | IC50 (U-87MG) | IC50 (breast cancer cell) | IC50 (HL-60) | IC50 (MDA-MB-468) | IC50 (MeWo) | IC50 (CALU-6) | IC50 (U-251) | IC50 (lung carcinoma cell) | IC50 (NCI-H441) | Compound
1 | 11.4 µM | < 20 µM | – | – | – | – | – | – | – | – | – | – | – | – | – | – | – | – | – | O=c1cc(-c2ccc(CCCN3CCCCC3)cc2)oc2c(O)c(O)ccc12 [SND172]
2 | – | – | < 10 µM | 10 µM | – | – | – | – | – | – | – | – | – | – | – | – | – | – | – | CN(CCCc1ccc(-c2cc(=O)c3ccc(O)c(O)c3o2)cc1)CCN1CCN(C)CC1 [SND173, 7,8-Dihydroxy-2-(4-(3-(methyl(2-(4-methylpiperazin-1-yl)ethyl)amino)propyl)phenyl)-4H-chromen-4-one trihydrochloride]
3 | – | – | – | – | 7 µM | 10 µM | – | – | – | – | – | – | – | – | – | – | – | – | – | O=c1cc(-c2ccc(CCCCN3CCCCC3)cc2)oc2c3c(ccc12)OCO3 [SND390]
4 | – | – | < 10 µM | 1.3 µM | 2.8 µM | 1.4 µM | < 10 µM | 1.1 µM | 0.98 µM | 3 µM | 5.1 µM | < 10 µM | 2.4 µM | 1.2 µM | 1.9 µM | 4 µM | 3.9 µM | < 20 µM | 1.2 µM | CN(CCCCc1ccc(-c2cc(=O)c3ccc4c(c3o2)OCO4)cc1)CCCN1CCCCC1 [SND391]
5 | – | – | < 10 µM | – | 11 µM | 3.1 µM | – | 5.4 µM | 3.8 µM | 3.7 µM | 7.6 µM | – | 5.9 µM | – | 9.8 µM | 7 µM | 8.4 µM | < 20 µM | 5.4 µM | NCCCNCCCCNCCCCc1ccc(-c2cc(=O)c3ccc4c(c3o2)OCO4)cc1 [SND392]
6 | – | – | < 10 µM | 2.7 µM | – | – | < 10 µM | – | – | 4.7 µM | 7.1 µM | < 10 µM | – | 3.2 µM | – | 7 µM | 6.8 µM | < 20 µM | – | CN(CCCCc1ccc(-c2cc(=O)c3ccc4c(c3o2)OCO4)cc1)C12CC3CC(CC(C3)C1)C2 [SND393]
7 | – | – | – | – | 2.9 µM | 2.1 µM | < 10 µM | 3.1 µM | 1.9 µM | – | 7.6 µM | < 10 µM | 2.8 µM | 3.8 µM | – | 8.9 µM | 7.6 µM | < 20 µM | 3.2 µM | CCN(CCCCc1ccc(-c2cc(=O)c3ccc4c(c3o2)OCO4)cc1)Cc1ccccc1OC [SND394]
